From patent publication US11912703B2, “6-azaindole compounds” (BRISTOL-MYERS SQUIBB COMPANY, priority 2017, dated 2024)
Like-named read-outs stand apart in the source and are kept apart here.

Columns and labels:
[1] = target: human TLR7 (Homo sapiens (Human), UniProt Q9NYK1); assay: TLR7 inhibition reporter assay (HEK-Blue SEAP); format: cell-based; settings: HEK-Blue cells overexpressing human TLR7, gardiquimod 7.5 μM stimulation
Experimental: (§1) HEK-Blue™-cells (Invivogen) overexpressing human TLR7, TLR8 or TLR9 receptors were used for screening inhibitors of these receptors using an inducible SEAP (secreted embryonic alkaline phosphatase) reporter gene under the control of the IFN-β minimal promoter fused to five NF-κB and AP-1-binding sites. Briefly, cells are seeded into Greiner 384 well plates (15000 cells per well for TLR7, 20,000 for TLR8 and 25,000 for TLR9) and then treated with test compounds in DMSO to yield a final dose response concentration range of 0.05 nM-50 μM. After a 30 minute compound pre-treatment at room temperature, the cells are then stimulated with a TLR7 ligand (gardiquimod at a final concentration of 7.5 μM), TLR8 ligand (R848 at a final concentration of 15.9 μM) or TLR9 ligand (ODN2006 at a final concentration of 5 nM) to activate NF-κB and AP-1 which induce the production of SEAP. After a 22 hour incubation at 37° C., 500 CO2, SEAP levels are determined with the addition of HEK-Blue™ Detection reagent (Invivogen), a cell culture medium that allows for detection of SEAP, according to manufacturer's specifications.

[2] = target: human TLR9 (Homo sapiens (Human), UniProt Q9NR96); assay: TLR9 inhibition reporter assay (HEK-Blue SEAP);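 note: SEAP driven by IFN-β minimal promoter carrying five NF-κB and AP-1 sites, 22 h at 37 °C, compounds 0.05 nM–50 µM, inhibition scaled between agonist-plus-DMSO and reference-inhibitor wells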
Experimental: as §1

[3] = target: human TLR8 (Homo sapiens (Human), UniProt Q9NR97); assay: TLR8 inhibition reporter assay (HEK-Blue SEAP);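 note: SEAP driven by IFN-β minimal promoter with five NF-κB and AP-1 sites, compounds tested 0.05 nM to 50 µM, 22 h incubation, inhibition relative to agonist plus DMSO wells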
[4] = read-out: TLR9 IC50; HEK-Blue cells overexpressing human TLR9, ODN2006 5 nM stimulation, SEAP reporter
[5] = read-out: TLR8 IC50; HEK-Blue cells overexpressing human TLR8, R848 15.9 μM stimulation, SEAP reporter
[6] = read-out: TLR9 IC50; HEK-Blue cells overexpressing human TLR9; ODN2006 5 nM stimulation; SEAP reporter
[7] = read-out: TLR8 IC50; HEK-Blue cells overexpressing human TLR8; R848 15.9 μM stimulation; SEAP reporter

Sequence of human TLR8 (Q9NR97 27-1041): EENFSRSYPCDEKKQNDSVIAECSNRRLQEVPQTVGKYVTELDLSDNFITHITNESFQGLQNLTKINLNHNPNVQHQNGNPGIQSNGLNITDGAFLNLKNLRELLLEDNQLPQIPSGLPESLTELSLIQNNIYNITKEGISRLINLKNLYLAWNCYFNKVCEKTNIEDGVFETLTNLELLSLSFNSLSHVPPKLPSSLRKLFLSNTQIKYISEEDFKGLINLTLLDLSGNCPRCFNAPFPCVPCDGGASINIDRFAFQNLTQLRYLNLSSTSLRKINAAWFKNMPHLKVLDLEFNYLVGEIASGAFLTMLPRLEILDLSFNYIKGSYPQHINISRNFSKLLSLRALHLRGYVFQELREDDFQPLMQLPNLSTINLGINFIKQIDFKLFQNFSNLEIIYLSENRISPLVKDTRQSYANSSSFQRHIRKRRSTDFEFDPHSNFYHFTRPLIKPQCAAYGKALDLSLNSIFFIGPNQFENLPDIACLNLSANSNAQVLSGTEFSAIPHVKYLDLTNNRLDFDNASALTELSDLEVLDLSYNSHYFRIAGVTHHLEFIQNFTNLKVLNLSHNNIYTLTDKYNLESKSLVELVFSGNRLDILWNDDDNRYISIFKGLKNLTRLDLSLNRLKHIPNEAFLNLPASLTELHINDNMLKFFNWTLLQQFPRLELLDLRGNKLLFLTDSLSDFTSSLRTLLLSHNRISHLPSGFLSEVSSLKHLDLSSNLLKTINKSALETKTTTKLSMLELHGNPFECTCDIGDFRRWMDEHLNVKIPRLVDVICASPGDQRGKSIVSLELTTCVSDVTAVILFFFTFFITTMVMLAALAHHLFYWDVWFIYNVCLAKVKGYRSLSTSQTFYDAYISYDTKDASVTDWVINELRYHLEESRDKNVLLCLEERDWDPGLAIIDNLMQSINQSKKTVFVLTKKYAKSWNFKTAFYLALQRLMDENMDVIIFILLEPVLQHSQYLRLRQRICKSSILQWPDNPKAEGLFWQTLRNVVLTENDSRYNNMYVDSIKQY
Sequence of human TLR9 (Q9NR96 26-1032): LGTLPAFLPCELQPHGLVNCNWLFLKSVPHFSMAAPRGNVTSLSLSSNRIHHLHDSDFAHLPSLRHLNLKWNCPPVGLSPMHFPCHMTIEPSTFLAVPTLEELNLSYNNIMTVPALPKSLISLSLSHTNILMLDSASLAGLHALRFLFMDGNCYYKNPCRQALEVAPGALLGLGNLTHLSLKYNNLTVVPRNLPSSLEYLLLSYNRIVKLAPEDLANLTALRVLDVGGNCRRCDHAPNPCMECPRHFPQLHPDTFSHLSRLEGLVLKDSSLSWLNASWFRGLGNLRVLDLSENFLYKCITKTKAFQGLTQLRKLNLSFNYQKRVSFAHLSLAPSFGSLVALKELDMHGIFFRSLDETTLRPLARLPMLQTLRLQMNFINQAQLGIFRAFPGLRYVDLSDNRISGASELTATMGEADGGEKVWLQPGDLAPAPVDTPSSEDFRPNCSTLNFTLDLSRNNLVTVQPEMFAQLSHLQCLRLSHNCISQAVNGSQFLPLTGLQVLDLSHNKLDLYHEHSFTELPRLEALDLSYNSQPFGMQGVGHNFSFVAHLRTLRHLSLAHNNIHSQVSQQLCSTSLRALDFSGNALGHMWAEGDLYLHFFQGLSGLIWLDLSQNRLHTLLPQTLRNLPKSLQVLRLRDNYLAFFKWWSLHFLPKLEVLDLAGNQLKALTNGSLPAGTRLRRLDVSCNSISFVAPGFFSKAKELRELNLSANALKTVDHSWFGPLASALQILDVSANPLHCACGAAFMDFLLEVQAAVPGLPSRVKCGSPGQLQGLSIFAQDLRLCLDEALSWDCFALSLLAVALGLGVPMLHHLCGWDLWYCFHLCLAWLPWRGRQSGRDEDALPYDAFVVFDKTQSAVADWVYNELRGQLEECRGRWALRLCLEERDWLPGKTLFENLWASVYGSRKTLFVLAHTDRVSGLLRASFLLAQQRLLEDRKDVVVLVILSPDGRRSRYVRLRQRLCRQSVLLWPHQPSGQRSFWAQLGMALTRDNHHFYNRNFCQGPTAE
Sequence of human TLR7 (Q9NYK1 27-1049): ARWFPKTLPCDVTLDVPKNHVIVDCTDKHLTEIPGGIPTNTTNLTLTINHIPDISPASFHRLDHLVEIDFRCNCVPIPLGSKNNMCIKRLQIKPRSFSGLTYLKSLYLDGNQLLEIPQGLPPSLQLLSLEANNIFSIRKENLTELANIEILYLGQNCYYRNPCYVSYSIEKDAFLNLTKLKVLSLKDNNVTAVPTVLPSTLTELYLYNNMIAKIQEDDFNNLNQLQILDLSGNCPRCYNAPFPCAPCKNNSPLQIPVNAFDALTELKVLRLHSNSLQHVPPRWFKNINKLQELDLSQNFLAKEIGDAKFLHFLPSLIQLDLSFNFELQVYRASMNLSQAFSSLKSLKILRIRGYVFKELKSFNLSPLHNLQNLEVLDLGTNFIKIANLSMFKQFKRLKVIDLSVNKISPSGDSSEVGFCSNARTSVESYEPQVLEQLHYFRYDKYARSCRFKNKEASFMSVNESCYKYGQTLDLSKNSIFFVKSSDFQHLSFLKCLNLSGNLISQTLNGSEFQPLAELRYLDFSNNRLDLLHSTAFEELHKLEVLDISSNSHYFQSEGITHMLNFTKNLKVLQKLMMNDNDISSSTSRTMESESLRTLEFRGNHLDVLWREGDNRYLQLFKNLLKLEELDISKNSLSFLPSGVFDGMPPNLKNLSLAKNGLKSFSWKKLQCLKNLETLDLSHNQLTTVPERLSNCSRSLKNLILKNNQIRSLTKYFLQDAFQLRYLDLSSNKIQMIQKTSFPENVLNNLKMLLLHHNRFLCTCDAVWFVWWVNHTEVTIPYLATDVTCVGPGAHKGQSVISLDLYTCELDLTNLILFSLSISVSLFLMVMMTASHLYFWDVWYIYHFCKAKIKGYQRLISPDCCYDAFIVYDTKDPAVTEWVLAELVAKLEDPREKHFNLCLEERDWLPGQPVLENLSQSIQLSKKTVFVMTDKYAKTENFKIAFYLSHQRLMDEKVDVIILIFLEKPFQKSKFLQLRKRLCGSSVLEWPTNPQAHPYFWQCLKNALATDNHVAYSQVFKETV

COc1cc(-c2[nH]c3cnc(N4CCC(N(C)CC(F)F)CC4)c(F)c3c2C(C)C)cn2ncnc12 [Example 189]
IC50 [1]: 20 nM | IC50 [2, 4]: 30700 nM | IC50 [3, 5]: 16 nM

Cc1cc(-c2[nH]c3cnc(C4CCC(NC5CCOCC5)CC4)c(F)c3c2C(C)C)cn2ncnc12 (stereo not drawn) [Example 110]
IC50 [1]: 2 nM | IC50 [2, 4]: 1160 nM | IC50 [3, 5]: 1.3 nM

Cc1c(-c2[nH]c3cnc(N4CCN(CC#N)C[C@H]4C)c(F)c3c2C(C)C)cn2ncnc2c1C [Example 467]
IC50 [1]: 2.8 nM | IC50 [2, 6]: 17100 nM | IC50 [3, 7]: 1.4 nM

CNC(=O)CN1CC2(C1)CN(c1ncc3[nH]c(-c4cn5ncnc5c(C)c4C)c(C(C)C)c3c1F)C2 [Example 395, 2-(6-(2-(7,8-dimethyl-[1,2,4]triazolo[1,5-a]pyridin-6-yl)-4-fluoro-3-isopropyl-1H-pyrrolo[2,3-c]pyridin-5-yl)-2,6-diazaspiro[3.3]heptan-2-yl)-N-methylacetamide]
IC50 [1]: 44 nM | IC50 [2, 4]: 17500 nM | IC50 [3, 5]: 6.6 nM

Cc1c(-c2[nH]c3cnc(C4CCC(NCC(C)(C)C)CC4)c(C)c3c2C(C)C)cn2ncnc2c1C (stereo not drawn) [Example 58]
IC50 [1]: 60 nM | IC50 [2, 4]: 692 nM | IC50 [3, 5]: 23 nM

Cc1c(-c2[nH]c3cnc(C4CCC(NC[C@@H](F)C(C)(C)O)CC4)c(F)c3c2C(C)C)cn2ncnc2c1C (stereo partly drawn) [Example 175]
IC50 [1]: 23 nM | IC50 [2, 4]: 7940 nM | IC50 [3, 5]: 6.4 nM

CNC1CCN(c2ncc3[nH]c(-c4cc(OC)c5ncnn5c4)c(C(C)C)c3c2F)CC1 [Example 191]
IC50 [1]: 0.91 nM | IC50 [2, 4]: 3500 nM | IC50 [3, 5]: 1.1 nM

COc1cc(-c2[nH]c3cnc(N4CC5(CN(CC6CCC6)C5)C4)c(F)c3c2C(C)C)cn2ncnc12 [Example 375]
IC50 [1]: 17 nM | IC50 [2, 4]: 7210 nM | IC50 [3, 5]: > 3120 nM

Cc1c(-c2[nH]c3cnc(C4CCC(NC5CCOCC5)CC4)c(F)c3c2C(C)C)cn2ncnc2c1C (stereo not drawn) [Example 232]
IC50 [1]: 11 nM | IC50 [2, 6]: 4500 nM | IC50 [3, 7]: 3.2 nM

CNCC(=O)N1CCC(c2ncc3[nH]c(-c4cc(C)nc(C)c4)c(C(C)C)c3c2F)CC1 [Example 214]
IC50 [1]: 7.5 nM | IC50 [2, 4]: 2070 nM | IC50 [3, 5]: 16 nM

COc1cc(-c2[nH]c3cnc(C4CCC(N5CCC5)CC4)cc3c2C(C)C)cn2ncnc12 (stereo not drawn) [Example 332]
IC50 [1]: 7.7 nM | IC50 [2, 4]: 154 nM | IC50 [3, 5]: 56 nM

Cc1c(-c2[nH]c3cnc(N4CCN(CC5CC5)CC4)c(F)c3c2C(C)C)cn2ncnc2c1C [Example 430]
IC50 [1]: 5.9 nM | IC50 [2, 4]: 6110 nM | IC50 [3, 5]: 0.27 nM

COc1cc(-c2[nH]c3cnc(N4CCN(C(=O)CN(C)C)C[C@H]4C)c(F)c3c2C(C)C)cn2ncnc12 [Example 439]
IC50 [1]: 7.1 nM | IC50 [2, 4]: 11200 nM | IC50 [3, 5]: 4.3 nM

COc1cc(-c2[nH]c3cnc(N4CCC(NC5CCOC5)CC4)c(F)c3c2C(C)C)cn2ncnc12 (stereo not drawn) [Example 103]
IC50 [1]: 0.86 nM | IC50 [2, 4]: 5920 nM | IC50 [3, 5]: 0.48 nM

COc1cc(-c2[nH]c3cnc(C4CCC(N5CC6(COC6)C5)CC4)c(F)c3c2C(C)C)cn2ncnc12 (stereo not drawn) [Example 161]
IC50 [1]: 2.4 nM | IC50 [2, 4]: 293 nM | IC50 [3, 5]: 4.6 nM

COc1cc(-c2[nH]c3cnc(N4CCC(NC(=O)CN(C)C)CC4)cc3c2C(C)C)cn2ncnc12 [Example 344]
IC50 [1]: 1.7 nM | IC50 [2, 4]: 257 nM | IC50 [3, 5]: 3.5 nM

CCN(C)C1CCN(c2ncc3[nH]c(-c4cc(C)c5ncnn5c4)c(C(C)C)c3c2F)CC1 [Example 69]
IC50 [1]: 0.55 nM | IC50 [2, 4]: 4050 nM | IC50 [3, 5]: 0.55 nM

Cc1c(-c2[nH]c3cnc(N4CCNCC4)c(F)c3c2C(C)C)cn2ncnc2c1C [Example 393]
IC50 [1]: 1.4 nM | IC50 [2, 4]: 8730 nM | IC50 [3, 5]: 0.51 nM

Cc1cc(-c2[nH]c3cnc(N4CCC(N5CC6(COC6)C5)CC4)c(F)c3c2C(C)C)cn2ncnc12 [Example 44]
IC50 [1]: 0.63 nM | IC50 [2, 4]: 2770 nM | IC50 [3, 5]: 0.36 nM

Cc1c(-c2[nH]c3cnc(C4CCC(NC5COC5)CC4)c(C)c3c2C(C)C)cn2ncnc2c1C (stereo not drawn) [Example 91]
IC50 [1]: 40 nM | IC50 [2, 4]: 676 nM | IC50 [3, 5]: 27 nM

COc1cc(-c2[nH]c3cnc(N4CCC(N5CC6(COC6)C5)CC4)c(F)c3c2C(C)C)cn2ncnc12 [Example 254]
IC50 [1]: 1.5 nM | IC50 [2, 4]: 3010 nM | IC50 [3, 5]: 0.55 nM

COc1cc(-c2[nH]c3cnc(C4CCC(NCC5(C)COC5)C4)cc3c2C(C)C)cn2ncnc12 (stereo not drawn) [Example 276]
IC50 [1]: 7.7 nM | IC50 [2, 4]: 114 nM | IC50 [3, 5]: 1.2 nM

Cc1cc(-c2[nH]c3cnc(C4CCC(N5CCC5)CC4)c(F)c3c2C(C)C)cn2ncnc12 (stereo not drawn) [Example 109]
IC50 [1]: 0.61 nM | IC50 [2, 4]: 1660 nM | IC50 [3, 5]: 1.7 nM

Cc1cc(-c2[nH]c3cnc(C4CCC(NC5CCOCC5)CC4)c(F)c3c2C(C)C)cn2ncnc12 (stereo not drawn) [Example 82]
IC50 [1]: 0.18 nM | IC50 [2, 4]: 1460 nM | IC50 [3, 5]: 0.36 nM

Cc1cc(-c2[nH]c3cnc(C4CCC(N5CC6(COC6)C5)CC4)c(F)c3c2C(C)C)cn2ncnc12 (stereo not drawn) [Example 132]
IC50 [1]: 3.4 nM | IC50 [2, 4]: 2130 nM | IC50 [3, 5]: 5 nM

COc1cc(-c2[nH]c3cnc(C4CCC(NCC5(C)COC5)C4)cc3c2C(C)C)cn2ncnc12 (stereo not drawn) [Example 59]
IC50 [1]: 15 nM | IC50 [2, 4]: 197 nM | IC50 [3, 5]: 4.7 nM

COc1cc(-c2[nH]c3cnc(N4CCN(CCS(C)(=O)=O)CC4)c(Cl)c3c2C(C)C)cn2ncnc12 [Example 294]
IC50 [1]: 3 nM | IC50 [2, 4]: 7630 nM | IC50 [3, 5]: 4.7 nM

COc1cc(-c2[nH]c3cnc(N4CCN(C5COC5)C[C@H]4C)c(F)c3c2C(C)C)cn2ncnc12 [Example 440]
IC50 [1]: 11 nM | IC50 [2, 4]: > 50000 nM | IC50 [3, 5]: 62 nM

COc1cc(-c2[nH]c3cnc(C4CCC(NC(C)C)CC4)cc3c2C(C)C)cn2ncnc12 (stereo not drawn) [Example 315]
IC50 [1]: 7.6 nM | IC50 [2, 4]: 166 nM | IC50 [3, 5]: 47 nM

Cc1c(-c2[nH]c3cnc(N4CCN(CC(C)(C)O)CC4)c(F)c3c2C(C)C)cn2ncnc2c1C [Example 426]
IC50 [1]: 30 nM | IC50 [2, 4]: > 50000 nM | IC50 [3, 5]: 0.54 nM

Cc1c(-c2[nH]c3cnc(C4CCC(NC(C)C)CC4)cc3c2C(C)C)cn2ncnc2c1C (stereo not drawn) [Example 318]
IC50 [1]: 6 nM | IC50 [2, 4]: 846 nM | IC50 [3, 5]: 21 nM

Cc1c(N2CCC(N(C)C(C)C)CC2)ncc2[nH]c(-c3cc(C)c4ncnn4c3)c(C(C)C)c12 [Example 124]
IC50 [1]: 0.38 nM | IC50 [2, 4]: 905 nM | IC50 [3, 5]: 0.65 nM

CNC(=O)CN1CCC(c2cc3c(C(C)C)c(-c4cn5ncnc5c(C)c4C)[nH]c3cn2)CC1 [Example 26]
IC50 [1]: 3.1 nM | IC50 [2, 4]: 633 nM | IC50 [3, 5]: 6.9 nM

COc1cc(-c2[nH]c3cnc(N4CCN(C(C)C)C[C@H]4C)c(F)c3c2C(C)C)cn2ncnc12 [Example 443]
IC50 [1]: 4 nM | IC50 [2, 4]: 6550 nM | IC50 [3, 5]: 9.3 nM

Cc1c(-c2[nH]c3cnc(C4CCC(NC5COC5)CC4)c(C)c3c2C(C)C)cn2ncnc2c1C (stereo not drawn) [Example 121]
IC50 [1]: 2.7 nM | IC50 [2, 4]: 759 nM | IC50 [3, 5]: 5.9 nM

Cc1c(-c2[nH]c3cnc(C4CCC(NC5COC5)CC4)c(F)c3c2C(C)C)cn2ncnc2c1C (stereo not drawn) [Example 267]
IC50 [1]: 6.9 nM | IC50 [2, 4]: 16700 nM | IC50 [3, 5]: 1.9 nM

COc1cc(-c2[nH]c3cnc(N4CC5(C4)CN(C4CCOCC4)C5)c(F)c3c2C(C)C)cn2ncnc12 [Example 370]
IC50 [1]: 19 nM | IC50 [2, 4]: 10300 nM | IC50 [3, 5]: 174 nM

Cc1c(N2CCC(NCC(C)(C)O)CC2)ncc2[nH]c(-c3cc(C)c4ncnn4c3)c(C(C)C)c12 [Example 283]
IC50 [1]: 0.46 nM | IC50 [2, 4]: 1620 nM | IC50 [3, 5]: 0.27 nM

COc1cc(-c2[nH]c3cnc(N4CCN(C5CCCOC5)CC4)c(F)c3c2C(C)C)cn2ncnc12 (single isomer, unassigned) [Example 387]
IC50 [1]: 33 nM | IC50 [2, 4]: > 50000 nM | IC50 [3, 5]: 13 nM

COc1cc(-c2[nH]c3cnc(N4CCC(NC5COC5)CC4)c(C)c3c2C(C)C)cn2ncnc12 [Example 137]
IC50 [1]: 0.63 nM | IC50 [2, 4]: 3160 nM | IC50 [3, 5]: 0.9 nM

Cc1c(-c2[nH]c3cnc(N4CCN(C(C)C)C[C@H]4C)c(F)c3c2C(C)C)cn2ncnc2c1C [Example 461]
IC50 [1]: 5.4 nM | IC50 [2, 6]: 9020 nM | IC50 [3, 7]: 1.5 nM

COc1cc(-c2[nH]c3cnc(N4CCC(N(C)CC(=O)N(C)C)CC4)c(F)c3c2C(C)C)cn2ncnc12 [Example 72]
IC50 [1]: 1.5 nM | IC50 [2, 4]: 6080 nM | IC50 [3, 5]: 1.3 nM

Cc1c(-c2[nH]c3cnc(C4CCC(NC(C)C)CC4)c(F)c3c2C(C)C)cn2ncnc2c1C (stereo not drawn) [Example 85]
IC50 [1]: 2.6 nM | IC50 [2, 4]: 924 nM | IC50 [3, 5]: 1.1 nM

Cc1cc(-c2[nH]c3cnc(C4CCN(CC(=O)N(C)C)CC4)c(F)c3c2C(C)C)cc(C)n1 [Example 153]
IC50 [1]: 8.8 nM | IC50 [2, 4]: 3830 nM | IC50 [3, 5]: 5.2 nM

COc1cc(-c2[nH]c3cnc(N4CCN(CC(=O)N(C)C)C[C@H]4C)c(F)c3c2C(C)C)cn2ncnc12 [Example 446]
IC50 [1]: 18 nM | IC50 [2, 4]: > 50000 nM | IC50 [3, 5]: 21 nM

Cc1cc(-c2[nH]c3cnc(C4CCN(CC(N)=O)CC4)c(F)c3c2C(C)C)cn2ncnc12 [Example 125]
IC50 [1]: 3.1 nM | IC50 [2, 4]: 7030 nM | IC50 [3, 5]: 6.5 nM

COc1cc(-c2[nH]c3cnc(C4CCC(NCC(C)(C)C)C4)cc3c2C(C)C)cn2ncnc12 (stereo not drawn) [Example 95]
IC50 [1]: 41 nM | IC50 [2, 4]: 1380 nM | IC50 [3, 5]: 35 nM
